Experimental data as given in US20090074774A1, “Fgfr binding peptides” (priority 2004, published 2009).
“Also recorded” adds a separate entry of the source.

What was measured:
[1] = tested on: caspase3-like activity in cultures of rat cerebellar granular neurons; assay: Caspase-3-like activity assay in cerebellar granule neurons; assay type: cell-based; settings: monomeric peptides; for apoptosis-associated Caspase-3-like activity: cells in culture medium depleted of KCl (5 mM); for effect on Caspase-3-like activity compared with high KCl (40 mM): culture medium depleted of KCl
Experimental: The effect of the peptide is compared to the effect of high concentration of kCl. *P<0.05, **P<0.01, paired student's t-test
Primary cultures of CGN were prepared as described above and apoptosis in cells was induced as described above.
For the caspase-3 assay, cultured CGN were dislodged, collected by centrifugation and lyzed. Aliquots of lysed cells were used for the assay which was performed according to the manufacturer's instructions (Promega, USA),

rats = assay: Social Recognition Test (SRT); assay type: in vivo, rat; settings: subcutaneous 4 mg/kg; 1 h and 24 h after administration; paired t-test
Experimental: Results from 8-9 animals expressed as a percentage±SEM. Paired t-test (*P<0.05 and ***P<0.001); B Time spent with social investigation at first meeting (T1) and second meeting (T2) 24 h after peptide/vehicle administration. Results from 9 animals expressed as a percentage±SEM. Paired t-test (*P<0.05).
The animals were evaluated using the SRT, 1 hour and 24 hours after subcutaneous injection of the peptide or vehicle.
Habituation session: On the day before the social recognition test (SRT), one habituation session was performed under similar conditions as the test session for adaptation to the experimental room, time when the test was performed, test cage, and contact with juvenile rats (a different juvenile was used during habituation session and social recognition test). The inter-trial interval for the habituation session was of 1 hour.
Experimental session: Each experimental session consisted of an initial and a test trial separated by an inter-trial (retention) interval of 2 hours.
Initial trial. Adult animals were individually housed 1 hour before testing in the test cage. For testing, a juvenile was placed into the cage and the social investigation by the adult rat was measured cumulatively for 4 min. Sniffing and grooming of body parts, anogenital sniffing and close following were scored. […]

[2] = tested on: rat cerebellar granular neurons; assay: Survival assay of cerebellar granule neurons (apoptosis induced by low KCl); assay type: cell-based; settings: for survival of CGN in culture: peptides as dendrimers (CDLd, EFLd, ABLd), apoptosis induced by 5 mM KCl, two days; for survival effect compared with the C3 peptide and GDNF: peptides as dendrimers, FIG. 2A
Experimental: The effect of the peptides is compared to the effect of glia-derived neurotrophic factor (GDNF) and dendrimeric form of the C3 peptide (C3d). […] Paired student's t-test.
Primary cultures of CGN were plated at a density of 100,000 cells/cm^2 on poly-L-lysine coated 8-well permanox slides in Neurobasal-A medium (Gibco, BRL) supplemented with 2% (v/v) B27, 0.5% (v/v) glutamax, 100 U/ml penicillin, 100 μg/ml streptomycin and KCl, making the final concentration of KCl in the medium 40 mM. 24 hours after plating, cytosine-β-D-arabinofuranoside (Ara-C; Sigma-Aldrich) was added to a final concentration of 10 μM to avoid proliferation of glial cells, after which the neurons were allowed to differentiate for further six days at 37° C. Apoptotic cell death was induced by washing twice and changing the medium to Basal Medium Eagle (BME; Gibco BRL) supplemented with 1% (v/v) glutamine, 100 U/ml penicillin and 100 μg/ml streptomycin, 3.5 g D-glucose/l and 1% (v/v) sodium pyruvate (Gibco BRL) together with various concentrations of peptide. Thereby the concentration of potassium in the cultures was reduced to 5 mM KCl. Two days after induction of apoptosis, the cells were fixed with 4% formaldehyde and stained with Hoechst 33258 as described for the survival assay employing hippocampal neurons.
The assay is performed as described by D'Mello et al., (1993) (Proc Natl Acad Sci U S A. 90:10989-93).

adult male Wistar rats = assay: Contextual Fear Conditioning Test (CFC); assay type: in vivo, rat; settings: peptide injected immediately after training
Experimental: The rats were handled for 120 seconds every day for 3 days preceding the first day of the experiment. On day 1 (training), the rats received a 1-second shock (unconditioned stimuli) each minute for two minutes. Animals were injected immediately after training with 5 μl EFL, ABL, CDL or control peptide, or the vehicle. Each treatment group consisted of 11-14 rats. In total, […] animals were evaluated. […] Each rat was rated as either “freezing” or “active”, every 2 seconds, using a time-sampling procedure.

[3] = target: T1, recombinant FGFR1 (immobilized FGFR Ig modules 2, 3) (Homo sapiens, UniProt P11362); assay: Binding of fragments of NCAM F3, 1 to FGFR1 by surface plasmon resonance; settings: 25° C., pH 7.4
T1 construct: The FGFR Ig modules 2, 3 were immobilized on a sensor chip CM5; made in house; host or cells: Drosophila S2 cells (Invitrogen)
T1 sequence (P11362 150-365 limits assumed): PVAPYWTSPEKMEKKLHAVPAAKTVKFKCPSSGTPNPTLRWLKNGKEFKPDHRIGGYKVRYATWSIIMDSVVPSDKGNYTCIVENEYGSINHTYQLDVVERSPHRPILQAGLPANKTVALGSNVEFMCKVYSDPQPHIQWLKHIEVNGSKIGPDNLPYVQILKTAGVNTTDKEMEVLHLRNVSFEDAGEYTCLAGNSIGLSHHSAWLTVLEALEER
Excerpt: The binding is given as a response difference (Resp. Diff.) between the binding to the sensor chip with the immobilized FGFR1 modules and a blank sensor chip (unspecific binding). Abbreviations: AB-A strand-loop-B strand (corresponds to the ABL peptide of SEQ ID NO: 2); CD-C strand-loop-D strand (corresponds to the CDL peptide of SEQ ID NO: 1); EF-E strand-loop-F strand (corresponds to the EFL peptide of SEQ ID NO: 5); BC-B strand-loop-C strand of F3, 1 module of NCAM; DE-D strand-loop-E strand of F3, 1 module of NCAM; FG-F strand-loop-G strand of F3, 1 module of NCAM.
The FGFR Ig module 3 and modules 2, 3 were expressed in Drosophila S2 cells (Invitrogen, USA) according to the manufacturer's instructions. All the proteins were purified by affinity chromatography using Ni^2+-NTA resin (Qiagen, USA) and/or ion exchange chromatography and gel filtration.
Binding analysis was performed using a BIAcoreX instrument (Biosensor AB) at 25° C. using 10 mM sodium phosphate pH 7.4, 150 mM NaCl as running buffer. The flow-rate was 5 μl/min. Data were analysed by non-linear curve-fitting using the manufacture's software. The FGFR Ig modules 2, 3 were immobilized on a sensor chip CM5 using amine coupling kit (Biosensor AB) as follows: 1) the two halves of the chip (designated Fc1 and Fc2) were activated by 20 μl activation solution; 2) the protein was immobilized on Fc1 using 12 μl 20 μg/ml protein in 10 mM sodium phosphate buffer pH 6.0; 3) Fc1 and Fc2 were blocked by 35 μl blocking solution. Binding of various compounds to the immobilized FGFR modules was studied as follows: A compound was injected simultaneously into Fc1 (with the immobilized FGFR modules) and Fc2 (with nothing immobilized). The curve representing unspecific binding of the compound to the surface of Fc2 was subtracted from the curve representing binding of the protein to the immobilized FGFR modules and the surface of Fc1. The resulting curve was used for analysis. The results of the binding experiments are present on FIG. 4.

[4] = tested on: rat cerebellar granular neurons (CGNs); assay: Stimulation of neurite outgrowth of cerebellar granule neurons in culture; assay type: cell-based; settings: for stimulation of neurite outgrowth: CGNs from 7-day-old rats, peptide treatment 24 h, culture without substrate; for effect of FGFR inhibitor on neurite outgrowth stimulated by EFL: CGNs
Experimental: B. Neurite outgrowth stimulated by EFL is inhibited by SU5402, an inhibitor of fibroblast growth factor receptor 1 (FGFR1). Results from four independent experiments are in all cases expressed as a percentage±SEM, with non-treated control cells set at 100%. *P<0.05, **P<0.01, ***P<0.001, compared with control. Paired student's t-test. For experiments, CGNs from 7-old-day rats were treated with the peptides for 24 hr. The cultures were fixed in 4% paraformaldehyde, followed by blocking with 1% BSA and then immunostained with rabbit anti-rat GAP-43 primary antibodies, and then with secondary Alexa Fluor®488 goat anti-rabbit antibodies.
Cerebellar granule neurons (CGN) were prepared from postnatal day seven Wistar rats largely as previously described (Neiiendam et al, (2004) J. Neurochem. 91(4):920-35). Cerebellar tissue was dissected in modified Krebs-Ringer solution kept on ice, and treated as described for the hippocampal neurons above. All cell cultures were incubated at 37° C. in a humidified atmosphere containing 5% CO2. All animals were handled in accordance with the national guidelines for animal welfare.
Dissociated cells were plated at a density of 10,000 cells/cm^2 on uncoated 8-well permanox Lab-Tek chamber slides in Neurobasal medium supplemented with 0.4% (w/v) bovine serum albumin (BSA; Sigma-Aldrich), 2% (v/v) B27 Neurobasal supplement, 1% (v/v) glutamax, 100 U/ml penicillin, 100 μg/ml streptomycin and 2% 1 M HEPES (all from Gibco, BRL). Peptide solutions without or with inhibitors of various signal transduction pathways were added to a total volume of 300 μl/cm^2, and the slides were incubated at 37° C. After 24 hours, the neurons were fixed with 4% (v/v) formaldehyde for 20 minutes and thereafter immunostained using primary rabbit antibodies against GAP-43 and Alexa Fluor secondary goat anti-rabbit antibodies. Images of at least 200 neurons for each group in each individual experiment were obtained systematically by using computer assisted fluorescence microscopy as previously described (Ronn et al., 2000 op. cit.). Briefly, a Nikon Diaphot inverted microscope with a Nikon Plan 20× objective (Nikon, Tokyo, Japan) coupled to a video camera (Grundig Electronics, Germany) was used for recordings. The same software package as described above for the dopaminergic neurite outgrowth assay was used to process the recorded images.

[5] = tested on day 8 after conditioning, placebo/control 32%

Molecule | apoptosis-associated Caspase-3-like activity [1] | effect on Caspase-3-like activity compared with high KCl (40 mM) [1] | difference between T1 and T2 of the same animal (presence of social memory) (rats) | survival of CGN in culture [2] | survival effect compared with the C3 peptide and GDNF [2] | time of freezing (adult male Wistar rats; [5]) [%] | direct binding to FGFR (SPR) [3] | stimulation of neurite outgrowth [4] | effect of FGFR inhibitor on neurite outgrowth stimulated by EFL [4] | effect of FGFR inhibitor on neurite outgrowth stimulated by EFL ([4]; listed as SU5402) | time of freezing (adult male Wistar rats; tested on day 1 after conditioning, placebo/control 40.0%)
KAEWKSLGEEAWHSK (CDL peptide, fragment of NCAM F3,1) [C strand-loop-D strand fragment of NCAM F3, 1 module] | inhibit | comparable | significant differences between T1 and T2 | significantly promote survival | higher | 42.5 | capable of direct binding | strong stimulators; also recorded: stimulate neurite outgrowth |  |  | 
Cc1c[nH]c(/C=C2\C(=O)Nc3ccccc32)c1CCC(=O)O [SU 5402] |  |  |  |  |  |  |  |  | abolished | inhibited | 
SIDRVEPYSSTAQVQFD (ABL peptide, fragment of NCAM F3,1) [A strand-loop-B strand fragment of NCAM F3, 1 module] |  |  |  | does not influence survival |  |  | capable of direct binding | inactive |  |  | 
TIMGLKPETRYAVR (TIMGLKPETRTYAVR; EFL peptide, fragment of NCAM F3,1) [E strand-loop-F strand fragment of NCAM F3, 1, used as positive control] | inhibit | comparable | significant differences between T1 and T2 | significantly promote survival | higher | 42.5 | capable of direct binding | strong stimulators; also recorded: stimulate neurite outgrowth |  |  | approximately 50.3%
